Reference: patent US9498506B2, “Pharmaceutical composition for preventing or treating thyroid diseases, comprising extract from Lonicera caerulea L. var. edulis fruits as active ingredient” (H&K BIOSCIENCE CO., LTD., priority 2013, dated 2016)
Marks after values point to notes of the source that are not given here.

How the values were obtained:
Assay type in all cases: in vivo
[1] = system: PTU-induced hypothyroidism rat; assay: Change in weight, PTU-induced hypothyroidism animal model; conditions: PTU-induced hypothyroidism rats
Method: (§1) Experimental animals are the same as described in Experimental Example 3.
(§2) Based on conventional methods known in the art (Neuro Endocrinol Lett. 1999; 20:311-14; Toxicol Sci. 2002; 69:79-91; Korean J Orient Physiol Pathol. 2010; 24:630-7), a hypothyroidism animal model was prepared by administering Propylthiouracil (PTU). Specifically, hypothyroidism was induced by dissolving 100 mg of PTU into 10 ml of saline solution and subcutaneously injecting the capacity of 1 ml/kg into dorsal neck of the animal model once everyday for a period of 28 days. On the other hand, in the intact control group, the same amount of saline solution instead of PTU was administered for the same period in the same manner as described above (FIG. 5).
(§3) Targeting the hypothyroidism animal prepared as above, 500, 250, and 125 mg/kg of the extract from Lonicera caerulea L. car. Edulis fruits (BH) prepared in Example 1-1 were dissolved in sterilized distilled water, respectively, and the capacity of 5 ml/kg was orally administered forcibly once a day for 42 consecutive days, 2 weeks prior to the PTU treatment. On the other hand, LF, an experimental group, was also dissolved in sterilized distilled water, and the capacity of 250 mg/kg was orally administered for the same period in the manner as described above.
(§4) 0.5 mg/kg of LT4 was dissolved in saline solution, and the capacity of 1 ml/kg was intraperitoneally administered once a day for 28 consecutive days since the PTU treatment day in the same manner as described above (Table 6, FIG. 5).
Next, the effects on treating hypothyroidism was confirmed by observing the weight change, thyroid weight change, content change in blood thyroid hormone (TSH, T3, and T4), and histopathological changes in the thyroid (the total thickness of thyroid in which the cells have been cut and average diameter of thyroid follicle) of the rats for each group. […]

[2] = system: PTU-induced hypothyroidism rat; assay: Change in the thyroid weight, PTU-induced hypothyroidism animal model; conditions: PTU-induced hypothyroidism rats; 0.5 mg/kg intraperitoneally
Method: as §1, §2
as §3, with “above. […]” for “above.”

[3] = system: PTU-induced hypothyroidism rat; assay: Thyroid hormone content in blood, PTU-induced hypothyroidism animal model; conditions: PTU-induced hypothyroidism rats; 0.5 mg/kg intraperitoneally
Method: as §1, §2, §3, §4
(§5) Next, the effects on treating hypothyroidism was confirmed by observing the weight change, thyroid weight change, content change in blood thyroid hormone (TSH, T3, and T4), and histopathological changes in the thyroid (the total thickness of thyroid in which the cells have been cut and average diameter of thyroid follicle) of the rats for each group.

[4] = system: PTU-induced hypothyroidism rat; assay: Histopathological observation of thyroid, PTU-induced hypothyroidism animal model; conditions: PTU-induced hypothyroidism rats; 0.5 mg/kg intraperitoneally
Method: as §1, §2
as §3, with “above. […]” for “above.”

[5] = system: PTU-induced hypothyroidism rat; assay: Change in the weight of reproductive organs, PTU-induced hypothyroidism animal model; conditions: PTU-induced hypothyroidism rats; 0.5 mg/kg intraperitoneally
Method: as §1, §2, §3, §4

[6] = system: PTU-induced hypothyroidism rat; assay: Content of sex hormones in serum, PTU-induced hypothyroidism animal model; conditions: PTU-induced hypothyroidism rats; LT4 0.5 mg/kg intraperitoneally
Method: as §1, §2, §3, §4

[7] = system: PTU-induced hypothyroidism rat; assay: Testicular antioxidant defense system, PTU-induced hypothyroidism animal model; conditions: testis, PTU-induced hypothyroidism rats; 0.5 mg/kg intraperitoneally
Method: as §1, §2, §3, §4

[8] = system: PTU-induced hypothyroidism rat; assay: Histopathological observation of reproductive organs, PTU-induced hypothyroidism animal model; conditions: PTU-induced hypothyroidism rats; 0.5 mg/kg intraperitoneally
Method: as §1, §2, §3, §4

[9] = system: LT4-induced hyperthyroidism rat; assay: Change in weight, LT4-induced hyperthyroidism animal model; conditions: LT4-induced hyperthyroidism rats
Method: (§6) Total number of 150 male SPF. VAF Outbred-Rats, Crl:CD [Sprague-Dawley, SD] rats (6 weeks old, OrientBio, Seungnam, Korea) were prepared and refined for 8 days in a laboratory environment. After that, rats with consistent weight (average: 233.70 g±10.47 g, 217 g to 252 g) were selected, and 8 rats per group (total of 56 rats) were used for the experiment. In the present invention, all the experimental animals were treated according to animal ethics of the animal experimentation ethics committee of Daegu Haany University. The experiment was conducted after pre-approval.
(§7) Based on conventional methods known in the art (Clin Exp Pharmacol Physiol. 2007 November; 34(11):1217-9, etc.), a hyperthyroidism animal model was prepared by administering LT4 (levothyroxine). Specifically, hyperthyroidism was induced by dissolving 3 mg of LT4 into 10 ml of saline solution and subcutaneously injecting the capacity of 1 ml/kg into dorsal neck of the animal model once everyday for a period of 27 days. On the other hand, in the intact control group, the same amount of saline solution instead of LT4 was administered for the same period in the same manner as described above (FIG. 1).
(§8) Targeting the hyperthyroidism animal prepared as above, 500, 250, and 125 mg/kg of the extract from Lonicera caerulea L. car. Edulis fruits (BH) prepared in Example 1-1 were dissolved in sterilized distilled water, respectively, and the capacity of 5 ml/kg was orally administered forcibly once a day from Day 12 to Day 15 since the treatment.
(§9) On the other hand, Lonicerae Flos aqueous hot water extract (LF), an experimental group, was also dissolved in sterilized distilled water, and the capacity of 250 mg/kg was orally administered for the same period in the same manner as described above. 10 mg/kg of PTU was dissolved in saline solution, and the capacity of 1 ml/kg was intraperitoneally administered for the same period in the same manner as described above (Table 1, FIG. 1).
as §5, with “hyperthyroidism” for “hypothyroidism”, “change” for “changes”, “cut,” for “cut and”, “follicle, and thickness of thyroid epithelium)” for “follicle)”

[10] = system: LT4-induced hyperthyroidism rat; assay: Change in the weight of thyroid, LT4-induced hyperthyroidism animal model; conditions: LT4-induced hyperthyroidism rats; 10 mg/kg intraperitoneally
Method: as §6
Based on conventional methods known in the art (Clin Exp Pharmacol Physiol. 2007 November; 34(11):1217-9, etc.), a hyperthyroidism animal model was prepared by administering LT4 (levothyroxine). […]
On the final day of sacrifice, left thyroids of all the experimental animals were extracted and isolated and next, the weight was measured and designated as the absolute weight. In order to minimize the secondary change accompanied with the change in weight, relative thyroid gland weight (Absolute […] weight/body weight at sacrifice ×100), which was the ratio of the absolute weight of the thyroid based on body weight, was calculated.

[11] = system: LT4-induced hyperthyroidism rat; assay: Thyroid hormone content in blood (radioimmunoassay), LT4-induced hyperthyroidism animal model; conditions: LT4-induced hyperthyroidism rats; 10 mg/kg intraperitoneally
Method: as §6, §7, §8
On the other hand, Lonicerae Flos aqueous hot water extract (LF), an experimental group, was also dissolved in sterilized distilled water, and the capacity of 250 mg/kg was orally administered for the same period in the same manner as described above. […]
The TSH, T3, and T4 contents in blood were measured in the units including ng/ml or μg/ml by Gamma count Cobra II (Packard Co., IL, USA) utilizing Coat A count Total TSH, T3 or T4 kit (DPC, CA, USA), respectively, based on Radioimmunoassay method (Toxicol Sci 69(1): 79-91, 2002).

[12] = system: LT4-induced hyperthyroidism rat; assay: Histopathological observation of thyroid, LT4-induced hyperthyroidism animal model; conditions: LT4-induced hyperthyroidism rats; 10 mg/kg intraperitoneally
Method: as §6, §7, §8
as §9, with “1). […]” for “1).”

N[C@@H](Cc1cc(I)c(Oc2cc(I)c(O)c(I)c2)c(I)c1)C(=O)O [LT4, Levothyroxine]
Body weight gains during 4 weeks of PTU treatment ([1]; 0.5 mg/kg intraperitoneally): 45.50 ± 14.55^fg
Body weight gains during 6 weeks of total experiments ([1]; 0.5 mg/kg intraperitoneally): 173.00 ± 16.75^ab
Body weight gains during 2 weeks of test material pretreatment ([1]; 0.5 mg/kg intraperitoneally group, period before LT4 and PTU dosing, in g (unit assumed)): 127.50 ± 13.15
Absolute organ weights Thyroid gland [2]: 0.012 ± 0.003^c g
Relative organ weights Thyroid gland [2]: 0.003 ± 0.001^c % of body weights
Serum thyroid hormone levels TSH [3]: 10.74 ± 1.62^bc ng/ml
Serum thyroid hormone levels Thyroxine [3]: 6.75 ± 1.45^e μg/ml
Serum thyroid hormone levels Tri-iodothyronine [3]: 19.24 ± 3.21^a ng/ml
Thyroid gland Mean follicular diameters [4]: 102.24 ± 12.47^ac μm/follicle
Thyroid gland Total thickness [4]: 1542.77 ± 137.07^bc μm/central regions
Absolute organ weights Epididymis [5]: 0.342 ± 0.042^ac g
Absolute organ weights Prostate [5]: 0.492 ± 0.042^ef g
Absolute organ weights Testis [5]: 1.082 ± 0.045^eg
Relative organ weights Epididymis [5]: 0.086 ± 0.012^gi % of body weights
Relative organ weights Prostate [5]: 0.124 ± 0.013^gf % of body weights
Relative organ weights Testis [5]: 0.273 ± 0.021^ac % of body weights
Serum male reproductive hormone levels DHT [6]: 98.00 ± 13.43^ab pg/ml
Serum male reproductive hormone levels FSH [6]: 21.01 ± 1.65^ab ng/ml
Serum male reproductive hormone levels Testosterone [6]: 1.45 ± 0.18^fi ng/ml
Antioxidant defense system Catalase [7]: 8.63 ± 2.13^eg U/mg protein
Antioxidant defense system H2O2 [7]: 80.63 ± 16.27^ab nM/mg protein
Antioxidant defense system SOD [7]: 8.50 ± 2.00^eg U/mg protein
Lipid peroxidation Malondialdehyde [7]: 5.54 ± 0.91 nM/mg protein
Epididymis A/O tubule percentages [8]: 56.00 ± 7.52^df %/mm^2
Epididymis Mean tubular diameters [8]: 217.98 ± 14.97^df μm/tubules of head
Prostate Atrophic tubule percentage [8]: 73.50 ± 10.80^ab %/mm^2
Prostate Mean tubular epithelial thickness [8]: 11.82 ± 2.76^df μm/tubules
Testis Mean semniferous tubule diameters [8]: 195.00 ± 13.29^df μm/tubules
Testis Stage I~II semniferous tubule percentages [8]: 15.63 ± 2.39^df %/mm^2

CCCc1cc(=O)[nH]c(=S)[nH]1 [PTU, 6-n-propyl-2-thiouracil]
Body weight gains during 15 days of PTU and herbal extracts treatment ([9]; 10 mg/kg intraperitoneally): 58.75 ± 15.04^ab
Body weight gains during 27 days of total experiments ([9]; 10 mg/kg intraperitoneally): 113.63 ± 24.49^ab
days after administration from which weight was considerably increased compared to LT4 control ([9]; 10 mg/kg intraperitoneally): 5 days
Body weight gains during 12 days of LT4 pretreatment ([9]; 10 mg/kg intraperitoneally group, period before test substance dosing): 54.50 ± 13.15^d
Absolute organ weights Thyroid gland [10]: 8.88 ± 2.03^h mg
Relative organ weights (% of BW) Thyroid gland [10]: 2.71 ± 0.64^c mg/g of BW
Serum thyroid hormone levels TSH [11]: 1.37 ± 0.24^ac ng/ml
Serum thyroid hormone levels Thyroxine [11]: 71.30 ± 23.13^bc μg/ml
Serum thyroid hormone levels Tri-iodothyronine [11]: 0.80 ± 0.18^ac ng/ml
Thyroid glands Mean follicular epithelium thickness [12]: 14.50 ± 2.84^gh μm/follicle
Thyroid glands Mean follicular thickness [12]: 71.87 ± 12.05^c μm/follicle
Thyroid glands Total thickness [12]: 1628.19 ± 174.84^ac μm/central region
